From publication PMC8892092 (The Journal of Biological Chemistry, 2022)

Experiments:
[1] = target: LuHNL (Linum usitatissimum, UniProt P93243, V117T/F340A)
[2] = target: T1, LuHNL (Linum usitatissimum, UniProt P93243, V117T); type: binding; parameters: E. coli SHuffle T7
[3] = target: T1, LuHNL
[4] = target: T1, LuHNL; type: binding; parameters: E. coli SHuffle T7; remark: listed apart in the source
[5] = target: T1, LuHNL; type: binding; parameters: E. coli SHuffle T7; remark: listed apart in the source
[6] = target: the molecule itself; assay: crystal structure; X-ray crystal structures of N-His-LuHNL (ligand-free with glycerol, soaked with acetone cyanohydrin, soaked with (rac)-2-butanone cyanohydrin); sitting drop, 20 °C, 0.1 M BIS-TRIS pH 6.5, 20% PEG MME 5,000; space group P2_(1), two dimers per asymmetric unit

CC(C)(O)C#N [CNH, acetone cyanohydrin]
Km [1]: 5.4 ± 2.3 mM
X-ray crystal structure, 1.58 Å [2]: The structures for acetone cyanohydrin (CNH) complexed LuHNL (LuHNL_CNH)
Km [3]: 2.7 ± 0.3 mM

CC[C@@](C)(O)C#N [(R)-BCN, (R)-2-butanone cyanohydrin]
X-ray crystal structure, 1.72 Å [4]: (R)-2-butanone cyanohydrin (BCN) complexed LuHNL (LuHNL_BCN) were determined

NC(=O)c1ccc[n+]([C@@H]2O[C@H](COP(=O)(O)OP(=O)(O)OC[C@H]3O[C@@H](n4cnc5c(N)ncnc54)[C@H](O)[C@@H]3O)[C@@H](O)[C@H]2O)c1 [NAD^+]
X-ray crystal structure, 1.48 Å; NAD+ quantitation [5]: electron density of NAD^+ was observed in the crystal without the addition of exogenous NAD^+

B1: Hydroxynitrile lyase from Linum usitatissimum (LuHNL), N-terminally His-tagged (enzyme)
chain: MASLPVSFAKPDKNGVITCKAIMLKEAKLPGMSYADTVQIIDIQVDPPQNVELRVKMLCASVCRTDILTIEGFMAPTQFPKINGHEGVGIIESMGPDTKNFKVGDVIVAPTLGECQTCSSCRSGRTNFCQNYGANESALEPDGTSRFSYIDSDGKKKLLYYKLGCSTWTQYMVVDSNYATKLNEIAPELPPPHGSILSCAFATGYGAVWLDAAVQEGDSVAIFGVGSVGISAVIAAKELKAKQIIVVDRNEYKLKMAMELGATHCINSEKLPEGVTPSQAVRKLTPKEVGVDASIESSGYDVFMNEAMKAAIHGKAKTVITGEGIYENDRIFFDFKDFLFGGNVVGNVTGRVRIHSDFPGLLRKAQEPVIRAGMDKILGYDAATMKCKYEVDIREGTPALLKALEEVENVDCVKLVIKLNDY
modifications: S-nitrosylation of Cys265 proposed from the electron density in the crystal (not detected in LuHNL solution)
notes: Hydroxynitrile lyase from Linum usitatissimum, gene of GenBank AF024588.1 (protein AAB81956.1), which has Thr117; Each subunit holds one NAD+, two Zn2+ and one Mg2+; The gene was cloned between NdeI and BamHI of pET-15b; also called N-His-LuHNL; LuHNL-wild; source: SHuffle T7 Express E. coli, pET-15b, purified (Ni Sepharose, Mono Q)
stoichiometry N [6]: 2
